One assay relates to P. aeruginosa 11 (14). The assay is described as follows: MIC of MEM with and without ML302F (1:8), VIM-2 producer. The class given is cell-based. The settings on record: Pseudomonas aeruginosa. On the procedure: (§1) In a further study, antimicrobial activities of MEM and ML302F alone and in combination were assessed in-vitro against 31 VIM-producing clinical isolates.
The subject of the next assay is P. aeruginosa 12 (14). The description is as above. Format: cell-based. The settings on record: Pseudomonas aeruginosa. How it is done: as §1
The test system of the next assay is P. aeruginosa 15 (14). The description is as above. The class given is cell-based. The conditions noted are these: Pseudomonas aeruginosa; P. aeruginosa 15 (14) (VIM-2); MEM alone or with ML302F (1:8). On the procedure: as §1
A further assay deals with P. aeruginosa 16 (14). The description is as above. Format: cell-based. The settings on record: Pseudomonas aeruginosa; P. aeruginosa 16 (14) (VIM-2); MEM alone or with ML302F (1:8). How it is done:
as §1

The next assay concerns P. aeruginosa 27 (14). Described as above. The conditions noted are these: Pseudomonas aeruginosa; P. aeruginosa 27 (14) (VIM-2); MEM alone or with ML302F (1:8). Format: cell-based. On the procedure:
as §1

A further assay has as its system P. aeruginosa 3 (13). Described as above. The class given is cell-based. The conditions noted are these: Pseudomonas aeruginosa; P. aeruginosa 3 (13) (VIM-2); MEM alone or with ML302F (1:8). How it is done:
as §1

In the next assay the test system is P. aeruginosa 30. The description is as above. Format: cell-based. The conditions noted are these: Pseudomonas aeruginosa; P. aeruginosa 30 (VIM-2); MEM alone or with ML302F (1:8). On the procedure: as §1
Another assay has as its system P. aeruginosa 47. The assay is described as above. Format: cell-based. The settings on record: Pseudomonas aeruginosa; P. aeruginosa 47 (VIM-2); MEM alone or with ML302F (1:8). How it is done:
as §1

In the next assay the test system is P. aeruginosa 50. Described as above. Format: cell-based. The settings on record: Pseudomonas aeruginosa; P. aeruginosa 50 (VIM-2); MEM alone or with ML302F (1:8). On the procedure: as §1
Another assay relates to P. aeruginosa 8 (13). The description is as above. Format: cell-based. The conditions noted are these: Pseudomonas aeruginosa. How it is done:
as §1

A further assay deals with P. aeruginosa 9 (13). The description is as above. The class given is cell-based. The conditions noted are these: Pseudomonas aeruginosa. How it is done: as §1
The test system of another assay is P. aeruginosa GR57. Described as above. Format: cell-based. The settings on record: Pseudomonas aeruginosa; P. aeruginosa GR57 (VIM-2); MEM alone or with ML302F (1:8). On the procedure:
as §1

The subject of another assay is P. aeruginosa GR64. The assay is described as above. Format: cell-based. The conditions noted are these: Pseudomonas aeruginosa; P. aeruginosa GR64 (VIM-2); MEM alone or with ML302F (1:8). How it is done: as §1
A further assay concerns the target T1, VIM-1 (Pseudomonas aeruginosa, UniProt A0A0F7KYQ8).
T1 construct: made in house; host or cells: Escherichia coli
Briefly: MBL screening assay (IC50), VIM-1. Format: biochemical. On the procedure:
Recombinant forms of NDM-1, NDM-1 M67C, VIM-1, VIM-2, SPM-1, IMP-1 and BcII MBLs were produced in Escherichia coli as described in J. Med. Chem. 56, 6945-6953 (2013) and Makena et al Chem MechCHem 8, 1923-9 (2013). Purified VIM-2 protein was dialysed into fresh crystallization buffer (50 mM HEPES pH 7.5, 150 mM NaCl and […], concentrated to 7.5 mg/mL and used for crystallographic analyses.
Kinetic and inhibition analyses and UV-VIS studies^16 against bacterial MBLs were performed as described by Van Berkel et al in J. Med. Chem. 56, 6945-6953 (2013) and Makena et al Chem MechCHem 8, 1923-9 (2013).
The experiments were performed by using a NovaStar microplate reader (using path length correction) and were performed at r.t. (24-25° C.). All enzymes and substrates were dissolved in the assay buffer: 50 mM HEPES-NaOH buffer (pH 7.2) supplemented with 1 μg/mL BSA (to minimize the denaturation of the enzyme), 1 μM ZnSO4 and 0.01% Triton 100. Screening was carried out against a panel of MBLs including NDM-1, VIM-1, VIM-2, SPM-1 (Sao Paulo MBL-1) and IMP-1 and the non-clinically relevant model MBL Bacillus cereus (BcII).
The kinetic values determined were the means from at least three independent measurements. […] The IC50 values were determined from the plot of activity (steady state rate) versus inhibitor concentration using the same software. […]

A further assay concerns the target TEM-1 (Escherichia coli, UniProt P62593). The assay is described as follows: Inhibition studies TEM-1. As to Inhibition verdict: key: N.I.—not inhibited. Format: biochemical. The settings on record: for Inhibition verdict: TEM-1, 100 μM; for remaining activity at 100 µM: read-out: RA (residual activity). On the procedure:
To investigate the selectivity of ML302/ML302F for bacterial MBLs, activity was tested against TEM-1 (a Class A SBL), PBP-5 (penicillin-binding protein 5 or dacA) and PBP-6 (penicillin-binding protein 6, or dacC) from E. coli, hHAT (human histone acetyltransferase) and hHDAC (human histone deacetylase). TEM-1, PBP-5 and -6 and hHAT are known to be inhibited by rhodanines. Selectively against hACE-2 (Angiotensin converting enzyme 2) and hHAGH (Hydroxyacylglutathione hydrolase, human Glyoxylase II) was also tested.
The inhibition analysis for TEM-1 was performed using the modified method that was previously described for MBLs.21 In brief: ML302 and ML302F were screened at a single concentration (100 μM) in duplicate. Inhibition was tested by pre-incubation of the appropriate amount of TEM-1 (1 nM final concentration) and ML302 or ML302F in the assay buffer (50 mM HEPES-NaOH buffer (pH 7.2) supplemented with 0.01% Triton 100) for 10 min. at r.t. prior to the initiation of the assay by the addition of FC5 ((6R,7R)-8-Oxo-3-(((2-oxo-2H-chromen-7-yl)oxy)methyl)-7-(2-phenylacetamido)-5-thia-1-azabicyclo[4.2.0]oct-2-ene-2-carboxylic acid 5,5-dioxide)21 (10 μM final concentration). The hydrolysis of FC5 was monitored by following the variation on fluorescence reading (380 nm—excitation and 460 nm—emission) using 384 well flat bottom plates (Greiner Bio-One). The experiments were performed on a PHERAstar FS-BMG Labtech microplate reader at r.t. (24-25° C.). All enzymes and inhibitors were prepared in the assay buffer.

The values below come from patent US10351525B2, “Beta lactamase inhibitors” (Oxford University Innovation Limited, priority 2014, dated 2019).

TEM-1, sequence (P62593 24-286 limits assumed): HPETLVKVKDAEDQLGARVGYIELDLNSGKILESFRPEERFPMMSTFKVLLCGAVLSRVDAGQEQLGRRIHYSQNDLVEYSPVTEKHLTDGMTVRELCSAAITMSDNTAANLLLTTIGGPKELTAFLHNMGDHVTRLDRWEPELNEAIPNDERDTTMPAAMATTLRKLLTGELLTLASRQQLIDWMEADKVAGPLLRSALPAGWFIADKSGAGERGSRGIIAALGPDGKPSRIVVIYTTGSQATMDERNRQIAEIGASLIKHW

Consider `C[C@@H](O)[C@H]1C(=O)N2C(C(=O)O)=C(S[C@@H]3CN[C@H](C(=O)N(C)C)C3)[C@H](C)[C@H]12` [Meropenem, meropenem], for which the minimum inhibitory concentration (MIC) in the assay with P. aeruginosa 11 (14) worked out at 128 mg/L; in the assay with P. aeruginosa 12 (14) it was 128 mg/L; in the assay with P. aeruginosa 15 (14) it was 64 mg/L; in the assay with P. aeruginosa 16 (14), 64 mg/L; in the assay on P. aeruginosa 27 (14) it was 64 mg/L; with P. aeruginosa 3 (13), 64 mg/L. In addition, the MIC in the assay with P. aeruginosa 30 was 64 mg/L; in the assay on P. aeruginosa 47 it was 32 mg/L; in the assay on P. aeruginosa 50, 32 mg/L; with P. aeruginosa 8 (13), 128 mg/L; in the assay with P. aeruginosa 9 (13) it was 128 mg/L; in the assay with P. aeruginosa GR57 it was 32 mg/L. Besides, the minimum inhibitory concentration (MIC) with P. aeruginosa GR64 amounted to 32 mg/L.

The compound `CN1CCN(NC(=O)CN2C(=O)C(=Cc3c(Cl)ccc(Cl)c3Cl)SC2=S)CC1` (mixture of isomers) [ML302, N-(4-Methylpiperazin-1-yl)-2-(4-oxo-2-thioxo-5-(2,3,6-trichlorobenzylidene)thiazolidin-3-yl)acetamide] gave a concentration for half-maximal inhibition (IC50) against VIM-1 of 0.66 ± 0.25 µM. At TEM-1, the Inhibition verdict entry is on record as “N.I” and the remaining activity at 100 µM came out at 98.6 ± 7.1%.

Regarding `O=C(O)C(S)=Cc1c(Cl)ccc(Cl)c1Cl` (racemic) [ML302F, 2-Mercapto-3-(2,3,6-trichlorophenyl)acrylic acid], half-maximal inhibition at VIM-1 (IC50) was put at 0.44 ± 0.19 µM. Moreover, at TEM-1, the Inhibition verdict result is reported as “N.I” and the remaining activity at 100 µM was determined as 99.6 ± 3.1%.

For orientation: MIC means the lowest concentration that inhibits growth of the organism. Usually IC50 stands for the concentration that gives 50% inhibition. A higher IC50 goes with weaker potency.
